These results are taken from patent US20210087290A1, “COMPOUNDS WHICH SPECIFICALLY BIND TO CD38 FOR USE IN THE TREATMENT OF NEURODEGENERATIVE AND INFLAMMATORY DISEASES” (ENCEFA, priority 2017, published 2021).

Data set [1] relates to DA (TH^+) neurons. Nature of the data set: MPP^+ intoxication model, DA cell survival in midbrain cultures. It is filed as cell-based, Wistar rat. How it is done:
(§1) Animals were treated in accordance with the Guide for the Care and Use of Laboratory Animals (National Research Council, 1996), European Directive 86/609, and the guidelines of the local institutional animal care and use committee. Cultures were prepared from the ventral mesencephalon of gestational age 15.5 Wistar rat embryos (Janvier Breeding Center, Le Genest St Isle, France). Dissociated cells in suspension obtained by mechanical trituration of midbrain tissue pieces were seeded at a density of 1.2-1.5 10^5 cells/cm^2 onto tissue culture supports precoated with 1 mg/mL polyethylenimine diluted in borate buffer pH 8.3 as described (Michel et al., 1997. J Neurochem. 69(4):1499-507). […] They were fed daily by replacing 70% of the medium. Routinely, mesencephalic cultures were established on Nunc 24-well culture plates (Thermofischer Scientific, Rochester, N.Y.). Note that these cultures contain tyrosine hydroxylase (TH)^+ neurons that were exclusively dopaminergic (Traver et al., 2006. Mol Pharmacol. 70(1):30-40). TH^+ neurons represented approximately 1-2% of the total number of neuronal cells present in these cultures. The evaluation of the survival of DA neurons was performed by counting cells immunopositive for TH as described (Toulorge et al., 2011. Faseb J. 25(8):2563-73).
Treatments with MPP^+ were performed in cultures where the spontaneous death process was prevented by long-term exposure to depolarizing concentrations of K^+ (30 mM), in the presence of the glutamate receptor antagonist MK801 (5 μM) to prevent unwanted excitotoxic insults as described previously (Douhou et al., 2001. J Neurochem. 78(1):163-74). Treatments with MPP^+ and potential neuroprotective molecules were carried out between 5 and 7 DIV. The number of microglial cells was evaluated in this same model since MPP^+ is known to induce microglial proliferation (Henze et al., 2005. J Neurochem. 95(4):1069-77).
The cultures were fixed for 12 min using 4% formaldehyde in Dulbecco's phosphate-buffered saline (PBS), then washed twice with PBS before an incubation step at 4° C. for 24 h with the following antibodies. A monoclonal anti-TH antibody diluted 1/5000 (ImmunoStar, Inc., Hudson, Wis.) or a polyclonal anti-TH antibody diluted 1/1000 (US Biologicals, Salem, Mass.) was used to assess the survival of DA neurons. A monoclonal anti-MAP2 antibody diluted at 1/250 (clone AP20, Sigma-Aldrich) was used to assess the survival of cortical neurons. Microglial cells were characterized using a mouse anti-Ibal antibody (1/50; clone MRC OX-42; Pharmingen, BD Biosciences, Le Pont-de-Claix, France). All antibodies were diluted in PBS containing 0.2% Triton X-100, except the mouse anti-Ibal which was diluted in PBS only. Detection of the primary antibodies was performed with an Alexa Fluor-488 conjugate of an anti-mouse IgG antibody or with an Alexa Fluor-555 conjugate of an anti-rabbit antibody (1:500).

Another data set deals with interleukin-10 (IL-10). Conditions: in vivo; cited from earlier work.
In a further data set the test system is dopaminergic neurons. Nature of the data set: Prevention of dopaminergic neurons cell death (summary statement). The class given is cell-based.
Data set [2] relates to DA (TH^+) neurons. Nature of the data set: GDNF withdrawal model in midbrain cultures. To be noted: GDNF 20 ng/mL for 10 DIV, deprived 11-15 DIV; NAD^+ 3 mM, antibodies 1 μg/mL.
Description: They were fed daily by replacing 70% of the medium. Routinely, mesencephalic cultures were established on Nunc 24-well culture plates (Thermofischer Scientific, Rochester, N.Y.). […] TH^+ neurons represented approximately 1-2% of the total number of neuronal cells present in these cultures.
To evaluate the efficacy of our compounds in a more mature population of DA neurons, we also used a variation of the previous model system. More precisely, spontaneous DA cell death was prevented up to 10 DIV by a chronic treatment with GDNF (20 ng/mL) to favor the maturation of healthy DA neurons. Then, DA cell death was triggered by total withdrawal of GDNF for the next 5 days.
The cultures were fixed for 12 min using 4% formaldehyde in Dulbecco's phosphate-buffered saline (PBS), then washed twice with PBS before an incubation step at 4° C. for 24 h with the following antibodies. A monoclonal anti-TH antibody diluted 1/5000 (ImmunoStar, Inc., Hudson, Wis.) or a polyclonal anti-TH antibody diluted 1/1000 (US Biologicals, Salem, Mass.) was used to assess the survival of DA neurons. […] All antibodies were diluted in PBS containing 0.2% Triton X-100, except the mouse anti-Ibal which was diluted in PBS only.
Data set [3] concerns cortical neurons. Nature of the data set: Excitotoxicity model (glutamate) in cortical cultures. The class given is cell-based, Wistar rat. Conditions: glutamate 75 μM between 12 and 14 DIV; NAD^+ 3 mM, antibodies 1 μg/mL. On the procedure:
(§2) Animals were treated in accordance with the Guide for the Care and Use of Laboratory Animals (National Research Council, 1996), European Directive 86/609, and the guidelines of the local institutional animal care and use committee. Cultures were prepared from the cortex of gestational age 15.5 Wistar rat embryos (Janvier Breeding Center, Le Genest St Isle, France). Dissociated cells in suspension obtained by mechanical trituration of cortical tissue pieces were seeded onto tissue culture supports precoated with 1 mg/mL polyethylenimine diluted in borate buffer pH 8.3 according to the protocol previously described for mesencephalic cultures. […] They were fed daily by replacing 70% of the medium. Routinely, cortical cultures were established on Nunc 24-well culture plates (Thermofischer Scientific, Rochester, N.Y.).
Glutamate (75 μM) was added to cortical cultures between 12 and 14 DIV in the presence or the absence of potential neuroprotective treatments. The cultures were then fixed in formaldehyde and immunostained using anti-MAP-2 antibody. The area occupied by MAP-2^+ neurons was assessed using ImageJ.
(§3) The cultures were fixed for 12 min using 4% formaldehyde in Dulbecco's phosphate-buffered saline (PBS), then washed twice with PBS before an incubation step at 4° C. for 24 h with the following antibodies. […]

For data set [4], the system named is cortical neurons. Nature of the data set: Oxidative stress model (H2O2) in cortical cultures. It is filed as cell-based, Wistar rat. To be noted: H2O2 75 μM between 12 and 14 DIV; NAD^+ 3 mM, antibodies 1 μg/mL. How it is done: as §2
H2O2 (75 μM) was added to cortical cultures between 12 and 14 DIV in the presence or the absence of potential neuroprotective molecules. The cultures were then fixed in formaldehyde and immunostained using anti-MAP-2 antibody. The area occupied by MAP-2′ neurons was assessed using ImageJ.
as §3

Data set [5] deals with cortical neurons. Nature of the data set: Measurement of glucose uptake in cortical neurons (2-NBDG). The class given is cell-based, Wistar rat. To be noted: acute treatment 30 min, 7 DIV; HB7 1 μg/mL, NAD^+ 3 mM, insulin 100 nM.
Protocol: In brief, cultures grown for 7 days were incubated with 2-NBDG (300 μM) for 30 min at 37° C. in the presence of test compounds in glucose-free N5 medium, washed twice to remove excess indicator, and then left to recover for 30 min before assessment. The fluorescent signal (excitation, 465 nm; emission, 540 nm) was acquired using an Arrayscan (ThermoFischer Scientific) and quantified using ImageJ. The average pixel intensity over the surface of each cell body was determined under the different experimental conditions. Background fluorescence was subtracted from raw data, and the results were expressed as a percentage of mean fluorescence intensity per cell under control conditions. 100 cells were analysed under each test condition.
Data set [6] has as its system midbrain DA (TH^+) neurons. Nature of the data set: Spontaneous and progressive dopaminergic (DA) cell death in midbrain cultures. To be noted: NAD^+ 3 mM, antibodies 1 μg/mL. The class given is cell-based, Wistar rat. On the procedure: as §1
We used a model system in which DA cell loss was spontaneous. […]

The conditions of data set [7]: in humans; cited from earlier work.

With `NC(=O)c1ccc[n+]([C@@H]2O[C@H](COP(=O)(O)OP(=O)([O-])OC[C@H]3O[C@@H](n4cnc5c(N)ncnc54)[C@H](O)[C@@H]3O)[C@@H](O)[C@@H]2F)c1` [ARA-F-NAD, ara-2′-deoxy-2′-fluoro-nicotinamide adenine dinucleotide], the “MPP^+-induced DA cell loss” value with DA (TH^+) neurons [1] (ARA-F-NAD 200 μM during the intoxication period, MPP^+ 3 μM) was “almost totally prevented”. For the same molecule, in the data set on DA (TH^+) neurons [1] (ARA-F-NAD 200 μM, Ned-19 2 μM), the “neuroprotective effect in the presence of Ned-19” value was “abolished”.

For the molecule “daratumumab: anti-CD38 antibody approved for the treatment of multiple myeloma”, the “plasma levels of anti-inflammatory interleukin-10 (IL-10)” value with interleukin-10 (IL-10) was “decrease”.

Regarding isatuximab: anti-CD38 antibody, the “plasma levels of anti-inflammatory interleukin-10 (IL-10)” value with interleukin-10 (IL-10) was “decrease”.

Consider `NC(=O)c1ccc[n+]([C@@H]2O[C@H](COP(=O)([O-])OP(=O)(O)OC[C@H]3O[C@@H](n4cnc5c(N)ncnc54)[C@H](O)[C@@H]3O)[C@@H](O)[C@H]2O)c1` [NAD^+, nicotinamide adenine dinucleotide], for which, in the data set with dopaminergic neurons, the “concentration at which the neuroprotective effect was exerted” value worked out at 3 mM. Besides, the “TH^+ neurons saved from death after GDNF deprivation” value in the data set with DA (TH^+) neurons [2] is listed as “saved from death”. For the same molecule, the protection from excitotoxicity entry with cortical neurons [3] is given as “protected from excitotoxicity”. In the data set on cortical neurons [4], the “protection from oxidative stress” value is recorded as “protected from oxidative stress”. Also, the “neuroprotective effect in the presence of Ex-527” value with DA (TH^+) neurons [1] (Ex-527 100 μM, HB7 1 μg/mL, NAD^+ 3 mM, MPP^+ model) was “only antagonized”. Further, in the data set with DA (TH^+) neurons [1] (MPP^+ 3 μM between 5 and 7 DIV, NAD^+ 3 mM, antibodies 1 μg/mL), the “MPP^+-induced DA cell loss” value is reported as “either partially or almost totally prevented”. Further, in the data set on DA (TH^+) neurons [1] (dantrolene 30 μM (FIG. 9), HB7 1 μg/mL, NAD^+ 3 mM, cADPR 200 μM, MPP^+ model), the “neuroprotective effect in the presence of dantrolene” value is “only antagonized”. Also, the glucose uptake entry in the data set with cortical neurons [5] was “only modestly increased glucose uptake”. In addition, the “number of midbrain DA (TH^+) neurons” value in data set [6] (10 DIV cultures chronically exposed) is “increased the number of midbrain DA (TH^+) neurons”. Further, in [6] (Ned-19 2 μM), the “neuroprotective effect in the presence of Ned-19” value was “slightly but significantly”.

B1: ABBV-8E12: intravenously injected monoclonal antibody cited for its brain/plasma ratio in humans (antibody, chains of the INN, looked up, V domains shown)
VH: EVKVVESGGGLVQPGGSMKLSCVVSGFTFSNYWVNWVRQAPGKGLEWVAQIRLKSDNYATHYEESVKGRFTISRDDSKSSVYLQMNNLRAEDSGIYYCTNWEDYWGQGTTVTVSS
VL: DIVLTQSPDSLAVSLGERATISCRASQSVSTSRYSYIHWYQQKPGQPPKLLIKYASNLESGVPSRFSGSGSGTDFTLNIHPLEPEDFATYYCHHSWEIPLTFGQGTKLEIK
Take B1: the Brain/plasma ratio in data set [7] is 0.385%.
